In article PMC9709698 (Journal of Molecular Structure, 2022):

Key:
NRC-03-nhCoV = test: Antiviral activity; format: cell-based, SARS-CoV-2; conditions: CC50 Vero-E6 / IC50 NRC-03-nhCoV
SARS-CoV-2 = test: Plaque infectivity reduction assay; format: cell-based; conditions: for inhibition at 62.5 µM: Severe acute respiratory syndrome coronavirus 2, read-out: Virus inhibition% Adsorption, 62.5 µM; for inhibition at 125 µM: Severe acute respiratory syndrome coronavirus 2, read-out: Virus inhibition% Adsorption, 125 µM

Row | Structure (SMILES) | SI (selectivity index) [CC50/IC50] (NRC-03-nhCoV) | also measured
1 | O=C(CSc1nc2ccccc2c(=O)[nH]1)Nc1ccccc1C(=O)O [Compound 11a, 2-(2-((4-Oxo-3,4-dihydroquinazolin-2-yl)thio)acetamido)benzoic acid] | 4.3 | 
2 | O=C(CSc1nc2ccccc2c(=O)[nH]1)Nc1cccc(C(=O)O)c1 [Compound 11b, 3-(2-((4-Oxo-3,4-dihydroquinazolin-2-yl)thio)acetamido)benzoic acid] | 4.9 | 
3 | O=C(CSc1nc2ccccc2c(=O)[nH]1)Nc1ccc(C(=O)O)cc1 [Compound 11c, 4-(2-((4-Oxo-3,4-dihydroquinazolin-2-yl)thio)acetamido)benzoic acid] | 5.6 | 
4 | O=C(CSc1nc2c(c(=O)[nH]1)CCCC2)Nc1ccccc1C(=O)O [Compound 12a, 2-(2-((4-Oxo-3,4,5,6,7,8-hexahydroquinazolin-2-yl)thio)acetamido)benzoic acid] | 2.5 | 
5 | O=C(CSc1nc2c(c(=O)[nH]1)CCCC2)Nc1cccc(C(=O)O)c1 [Compound 12b, 3-(2-((4-Oxo-3,4,5,6,7,8-hexahydroquinazolin-2-yl)thio)acetamido)benzoic acid] | 0.98 | 
6 | O=C(CSc1nc2c(c(=O)[nH]1)CCCC2)Nc1ccc(C(=O)O)cc1 [Compound 12c, 4-(2-((4-Oxo-3,4,5,6,7,8-hexahydroquinazolin-2-yl)thio)acetamido)benzoic acid] | 0.63 | 
7 | O=C(CSc1nc2ccccc2c(=O)[nH]1)NNC(=O)c1ccccc1 [Compound 17a, N'-(2-((4-Oxo-3,4-dihydroquinazolin-2-yl)thio)acetyl)benzohydrazide] | 0.59 | 
8 | Cc1ccc(C(=O)NNC(=O)CSc2nc3ccccc3c(=O)[nH]2)cc1 [Compound 17b, 4-Methyl-N'-(2-((4-oxo-3,4-dihydroquinazolin-2-yl)thio)acetyl)benzohydrazide] | 2.14 | 
9 | O=C(CSc1nc2ccccc2c(=O)[nH]1)NNC(=O)c1ccc([N+](=O)[O-])cc1 [Compound 17c, 4-Nitro-N'-(2-((4-oxo-3,4-dihydroquinazolin-2-yl)thio)acetyl)benzohydrazide] | 2.61 | 
10 | COc1ccccc1C(=O)NNC(=O)CSc1nc2ccccc2c(=O)[nH]1 [Compound 17d, 2-Methoxy-N'-(2-((4-oxo-3,4-dihydroquinazolin-2-yl)thio)acetyl)benzohydrazide] | 0.4 | 
11 | O=C(CSc1nc2ccccc2c(=O)[nH]1)NNC(=O)c1ccccc1Cl [Compound 17e, 2-Chloro-N'-(2-((4-oxo-3,4-dihydroquinazolin-2-yl)thio)acetyl)benzohydrazide] | 0.24 | 
12 | O=C(CSc1nc2ccccc2c(=O)[nH]1)NNC(=O)c1ccc(Cl)cc1 [Compound 17f, 4-Chloro-N'-(2-((4-oxo-3,4-dihydroquinazolin-2-yl)thio)acetyl)benzohydrazide] | 4.3 | 
13 | O=C(CSc1nc2ccccc2c(=O)[nH]1)NNC(=O)c1ccccc1Br [Compound 17g, 2-Bromo-N'-(2-((4-oxo-3,4-dihydroquinazolin-2-yl)thio)acetyl)benzohydrazide] | 8.64 | inhibition at 62.5 µM (SARS-CoV-2): 26.7 ± 6.65%; inhibition at 125 µM (SARS-CoV-2): 29.6 ± 8.3%
14 | O=C(CSc1nc2c(c(=O)[nH]1)CCCC2)NNC(=O)c1ccccc1 [Compound 18a, N'-(2-((4-oxo-3,4,5,6,7,8-hexahydroquinazolin-2-yl)thio)acetyl)benzohydrazide] | 1.68 | 
15 | Cc1ccc(C(=O)NNC(=O)CSc2nc3c(c(=O)[nH]2)CCCC3)cc1 [Compound 18b, 4-Methyl-N'-(2-((4-oxo-3,4,5,6,7,8-hexahydroquinazolin-2-yl)thio)acetyl)benzohydrazide] | 4.43 | 
16 | O=C(CSc1nc2c(c(=O)[nH]1)CCCC2)NNC(=O)c1ccc([N+](=O)[O-])cc1 [Compound 18c, 4-Nitro-N'-(2-((4-oxo-3,4,5,6,7,8-hexahydroquinazolin-2-yl)thio)acetyl)benzohydrazide] | 10.67 | inhibition at 62.5 µM (SARS-CoV-2): 28.9 ± 10.2%; inhibition at 125 µM (SARS-CoV-2): 44.4 ± 3.87%
17 | COc1ccccc1C(=O)NNC(=O)CSc1nc2c(c(=O)[nH]1)CCCC2 [Compound 18d, 2-Methoxy-N'-(2-((4-oxo-3,4,5,6,7,8-hexahydroquinazolin-2-yl)thio)acetyl)benzohydrazide] | 2.95 | 
18 | O=C(CSc1nc2c(c(=O)[nH]1)CCCC2)NNC(=O)c1ccccc1Cl [Compound 18e, 2-Chloro-N'-(2-((4-oxo-3,4,5,6,7,8-hexahydroquinazolin-2-yl)thio)acetyl)benzohydrazide] | 1.14 | 
19 | O=C(CSc1nc2c(c(=O)[nH]1)CCCC2)NNC(=O)c1ccc(Cl)cc1 [Compound 18f, 4-Chloro-N'-(2-((4-oxo-3,4,5,6,7,8-hexahydroquinazolin-2-yl)thio)acetyl)benzohydrazide] | 16.04 | Virus inhibition% Virucidal (SARS-CoV-2; 125 µM): 53.3 ± 3.35%; inhibition at 62.5 µM (SARS-CoV-2): 13.3 ± 3.35%; inhibition at 125 µM (SARS-CoV-2): 20 ± 3.3%
20 | O=C(CSc1nc2c(c(=O)[nH]1)CCCC2)NNC(=O)c1ccccc1Br [Compound 18g, 2-Bromo-N'-(2-((4-oxo-3,4,5,6,7,8-hexahydroquinazolin-2-yl)thio)acetyl)benzohydrazide] | 5.23 | 
